Here are results for 13 compounds from patent publication US5840918A, “Isoprenyl transferase inhibitors” (Eisai Co., Ltd., priority 1997, dated 1998).

The term IC50 denotes the concentration that inhibits the measured activity by half.

SMILES strings stand for the structures. Entries after “also recorded” stand apart in the source; their conditions may differ.

The target of one assay is GGTase. The assay is described as follows: Inhibition of GGTase-mediated prenylation (in vitro prenylation assay). Format: biochemical. Conditions: Table 1; partially purified GGTase, 5 μM recombinant H-ras (61L, CAIL), 1 μM [3H] geranylgeranyl diphosphate. The text has this:
(§1) Nanomolar concentrations of the indicated compounds were sufficient to inhibit farnesylation of ras proteins in vitro. For screening candidate compounds useful for the treatment of ras-associated tumors, the FTase assay is preferred. […] Substitutions which confer GGTase specificity as taught herein also produced potent inhibitors of GGTase.

For a further assay, the system named is HT1080. Description: Inhibition of anchorage-independent tumor cell growth, HT1080. Format: cell-based. The following applies: Homo sapiens, HT-1080, 336 h; HT1080, 14 days, soft agar. The procedure: (§2) HT1080 is a […] with a N-ras mutation. MIApaca-2 is a pancreatic carcinoma and Sw620 is a colonic carcinoma; each of these has a K-ras mutation. T24 is a bladder carcinoma with a H-ras mutation; and zH1 is a H-ras-transformed NIH/3T3 mouse fibroblast. Additional compounds have been tested and have yielded positive results in these organ-specific or ras-protein specific anchorage-independent tumor cell models.
(§3) Five tumor cell lines were seeded at 600 cells/well (12-well plates) in 0.6 mL of 0.3% Noble agar in culture medium over a bottom agar layer (0.5% Noble agar in culture medium). The culture medium was Dulbecco's modified Eagle's medium (Nissui Pharmaceutical Co., Ltd., Tokyo, Japan), supplemented with 10% heat-inactivated calf serum (GIBCO, Grand Island, N.Y.). A 10 mM stock solution of inhibitor compound PD331 in DMSO was diluted with culture medium to 3× the final concentration and 0.6 mL of the diluted inhibitor solution was overlayed on each well. Controls contained the same amount of DMSO as inhibitor samples. Plates were incubated at 37° C. in 5% CO2 for 14 days. Colonies were counted by replacement of the overlaying medium with 0.6 mL of 2 mg/mL MTT in PBS, incubation for 30 min, and quantitation of scanned photographs. IC50 concentrations for each cell line are shown below in Table 3.

Assay [1] deals with H-ras farnesylation in H-ras (61L) transformed NIH3T3 fibroblasts. Description: Inhibition of H-ras farnesylation in whole cells (Western blot). Format: cell-based, mouse. Conditions: Mus musculus, NIH3T3, 24 h, Table 2. The procedure: The ability of compounds of the invention to inhibit H-ras farnesylation and rap1 geranylgeranylation in whole cells was determined. H-ras (61L) transformed NIH3T3 fibroblasts were generously provided by C. Der, Univ. N. Carolina. These fibroblasts were treated for 24 h with 50 μM lovastatin (control) or the indicated concentrations of inhibitor. The cells were lysed in 1% NP-40, 5 mM Tris-HCl (pH 8.0), 5 mM EDTA, 0.1 mM N-tosyl-L-phenylalanine chloromethyl ketone, 0.1 mM N-tosyl-L-lysine chloromethyl ketone, and 1 mM phenylmethylsulfonyl fluoride. The lysate was centrifuged (15000×g, 5 min.) and the supernatant was used as a cell extract. […] After transfer to IMMOBILON P™ membrane (Millipore), the blots were probed with LA069 mouse monoclonal antibody to H-ras (Quality Biotech), or rabbit polyclonal antibody to rap1/Krev (Santa Cruz Biotechnology). All Western blots were developed using ECL chemiluminescent reagents (Amersham).
On the technique in general: Immunoblotting shows a protein as a band on a membrane.

The test system of a further assay is MIApaca-2. The assay is described as follows: Inhibition of anchorage-independent tumor cell growth, MIApaca-2. Format: cell-based. The following applies: Homo sapiens, MIA PaCa-2, 336 h; MIApaca-2, 14 days, soft agar. The procedure: as §2, §3
For another assay, the target named is T1, FTase (Bos taurus, UniProt P29702+P49355).
T1 construct: bovine brain by inference from the cited Moores et al. 1991
The assay is described as follows: Inhibition of FTase-mediated prenylation (in vitro prenylation assay). Format: biochemical. Conditions: Table 1; partially purified FTase, 3 μM recombinant H-ras, 440 nM [3H]FPP, 15 min 37° C.
From the text: as §1

The next assay has as its system Sw620. Description: Inhibition of anchorage-independent tumor cell growth, Sw620. Format: cell-based. The following applies: Homo sapiens, SW-620, 336 h; Sw620, 14 days, soft agar. The procedure:
as §2, §3

Assay [2] concerns zH1 (H-ras-transformed NIH/3T3 mouse fibroblast). The assay is described as follows: Inhibition of anchorage-independent tumor cell growth, zH1. Format: cell-based. The following applies: NIH3T3, 336 h, zH1, 14 days, soft agar. The procedure: as §2, §3
Assay [3] concerns H-ras (61L) transformed NIH3T3 fibroblast tumors. Description: Inhibition of tumor xenograft in mice, Example D (PD331). Format: in vivo, mouse. Conditions: for T/C (%) Volume / Tumor Volume: day 14. The procedure:
Cells were harvested from exponential-phase maintenance cultures (T-225 cm^2 culture flasks, Corning Inc., Corning, N.Y.) with trypsin-EDTA (GIBCO), centrifuged at 160 ×g for 5 min, washed once with 10 mL cold Hank's balanced salt solution (HBSS, GIBCO), and resuspended at a concentration of 1×10^6 cells/mL. Five week old female athymic nude mice were obtained from SLC (3371-8, Kotoummachi, Hamamatsu-shi, Shizuoka 431-11, Japan) and maintained under pathogen-free conditions. […] Inhibitor compound PD331 was suspended in saline containing 2% Tween-80 in a total injection volume of 0.2 mL. Two dosage concentrations were prepared, 0.3 mg/mouse or 1.0 mg/mouse. Compound PD331 was subcutaneously injected daily at the site of tumor cell implantation for 5 consecutive days, starting approximately 8 h after the implantation (day 0). The control group was injected with vehicle only. Body weight and tumor dimensions were measured at days 7, 10, and 14. Tumor volume was estimated by the following calculation: tumor volume =(0.5)(length×width×width). At day 14, each mouse was euthanized with CO2 (g), and each tumor was excised and weighed. The statistical significance was estimated by the Student's T-test.

In another assay the test system is T24. The assay is described as follows: Inhibition of anchorage-independent tumor cell growth, T24. Format: cell-based. Conditions: Homo sapiens, T-24, 336 h; T24, 14 days, soft agar. The procedure: as §2, §3
Assay [4] has as its system H-ras (61L) transformed NIH3T3 fibroblast tumors. The assay is described as follows: Inhibition of tumor xenograft in mice, Example E (PM061). Format: in vivo, mouse. The following applies: for T/C (%) Volume / Tumor Volume: day 15. The procedure:
H-ras (61L) transformed NIH3T3 fibroblasts were grown in Dulbecco's modified Eagle's medium supplemented with 10% heat-inactivated calf serum. 100 U/mL penicillin, 100 μg/mL streptomycin, and 0.75 mg/mL G418 (GIBCO) and incubated at 37° C. in 5% CO2. Cells were harvested from exponential-phase maintenance cultures (T-225 cm^2 culture flasks, Corning Inc., Corning, N.Y.) with trypsin-EDTA (GIBCO), centrifuged at 160 ×g for 5 min, washed once with 10 mL cold Hank's balanced salt solution (HBSS, GIBCO), and resuspended at a concentration of 1×10^6 cells/mL.
Five week old female athymic nude mice were obtained from SLC (3371-8, Kotoummachi, Hamamatsu-shi, Shizuoka 431-11, Japan) and maintained under pathogen-free conditions. The mice were subcutaneously injected in the lateral flank with 1×10^5 H-ras transformed cells/mouse.
Inhibitor compound PD331 was suspended in saline containing 2% Tween-80 in a total injection volume of 0.2 mL. Two dosage concentrations were prepared, 0.3 mg/mouse or 1.0 mg/mouse. Compound PD331 was subcutaneously injected daily at the site of tumor cell implantation for 5 consecutive days, starting approximately 8 h after the implantation (day 0). The control group was injected with vehicle only. Body weight and tumor dimensions were measured at days 7, 10, and 14. Tumor volume was estimated by the following calculation: tumor volume =(0.5)(length×width×width). At day 14, each mouse was euthanized with CO2 (g), and each tumor was excised and weighed. The statistical significance was estimated by the Student's T-test.
The same in vivo experiment as Example D above was performed, using compound PM061. Instead of 0.3 mg/mouse and 1.0 mg/mouse, three injection concentrations were prepared (0.5 mg/mouse, 1.0 mg/mouse, and 2.0 mg/mouse). Body weight and tumor size were measured at days 7, 10, and 15. Tumors were excised at day 15.

Setting [5] is: 0.3 mg/mouse s.c. daily for 5 days.
[6] abbreviates: 1.0 mg/mouse s.c. daily for 5 days.

`CSCC[C@H](NC(=O)C(/C=C\[C@@H](/C=C/[C@@H](N)CS)C(C)C)Cc1ccccc1)C(=O)O` (stereo partly shown) [PD331]: the IC50 is 13 nM on GGTase; 1800 nM in the assay on HT1080; 400 nM in [1]; 19000 nM with MIApaca-2; 11 nM on FTase; 22000 nM in the assay with Sw620. Besides, the values for the IC50 (in assay [2]; in the assay with T24) were 600 nM and 300 nM, respectively. In addition, the “T/C (%) Volume” value in [3] (setting [5]) was 53.3%; in [3] (setting [6]) it was 16.5%. Further, the results for the Tumor Volume in assay [3] (setting [5]) and in assay [3] (setting [6]) were 871.28 ± 526.90 µL and 269.55 ± 292.95 µL, respectively. Moreover, the “weight and volume of tumors versus control group” value in [3] (every concentration) is “both the weight and the volume of the tumors from the treated group were less than the weight and volume of tumors from the control group”. Further, in assay [3] (mouse, in vivo), the “effect on H-ras tumor growth in mice” value is given as “has a significant effect on H-ras tumor growth in mice; also recorded: effectively inhibited the growth of ras-associated tumors in mice”.
Regarding `CSCC[C@H](NC(=O)c1cc(C/C=C/C(N)CS)ccc1-c1ccccc1)C(=O)O` (stereo partly shown) [PM061], the “T/C (%) Volume” value was determined as 90.3% in [4] (0.5 mg/mouse s.c.), 101.8% in [4] (1.0 mg/mouse s.c.) and 53.6% in assay [4] (2.0 mg/mouse s.c.). Also, the “Tumor Volume” value in assay [4] (0.5 mg/mouse s.c.) was 2360.4 ± 645.0 µL; in [4] (1.0 mg/mouse s.c.) it was 2660.3 ± 756.4 µL; in [4] (2.0 mg/mouse s.c.) it was 1400.6 ± 703.2 µL. Also, in assay [4] (injection of 2.0 mg), the “tumor volume as % of the tumor volume in the control mouse” value turned out to be 53.2%. Also, in [4] (mouse, in vivo), the “effect on H-ras tumor growth in mice” value was “had a significant effect on H-ras tumor growth in mice; also recorded: effectively inhibited the growth of ras-associated tumors in mice”. Moreover, the IC50 on GGTase was found to be 144 nM; in assay [1], 4800 nM; at FTase it was 7 nM.
With `COc1ccccc1-c1ccc(C/C=C/C(N)CS)cc1C(=O)N[C@@H](CCSC)C(=O)O` (stereo partly shown) [PM142], the IC50 was 72 nM at GGTase, 1100 nM in assay [1] and 8 nM at FTase.
As to `CCOC(=O)[C@H](CCSC)NC(=O)c1cc(C/C=C/C(N)CS)ccc1-c1ccccc1` (stereo partly shown) [PM151], the IC50 at GGTase stood at 3870 nM; in assay [1], 2900 nM; at FTase it was 605 nM.
`NC(/C=C/Cc1ccc(-c2ccsc2)c(C(=O)N[C@@H](Cc2cccs2)C(=O)O)c1)CS` (stereo partly shown) [PM152]: the concentration for half-maximal inhibition (IC50) at GGTase turned out to be 270 nM; in assay [1], 40300 nM; on FTase, 38 nM.
The corresponding values for `CS(=O)(=O)CC[C@H](NC(=O)c1cc(C/C=C/C(N)CS)ccc1-c1ccccc1)C(=O)O` (stereo partly shown) [PM161] are 2140 nM, 18900 nM and 0.9 nM.
With `CSCC[C@H](NC(=O)c1cc(CCCC(N)CS)ccc1-c1ccsc1)C(=O)O` (stereo partly shown) [PM162], the IC50 at GGTase worked out at 120 nM; in assay [1], 13100 nM; at FTase, 1.8 nM.
Turning to `NC(/C=C/Cc1ccc(-c2ccccc2)c(C(=O)N[C@@H](Cc2ccccc2)C(=O)O)c1)CS` (stereo partly shown) [PM172], the IC50 at GGTase was 123 nM; in assay [1], > 100000 nM; at FTase it was 56 nM.
For the compound `CSCC[C@H](NC(=O)c1cc(C/C=C/C(N)CS)ccc1-c1cccs1)C(=O)O` (stereo partly shown) [PM182], the IC50 on GGTase stood at 520 nM; in assay [1], 2700 nM; on FTase, 17 nM.
`COC(=O)[C@H](CCSC)NC(=O)c1cc(C/C=C/C(N)CS)ccc1-c1ccsc1` (stereo partly shown) [PM192]: the IC50 on GGTase is 3790 nM; in assay [1], 230 nM; on FTase it was 280 nM.
`COC(=O)[C@H](CCS(C)(=O)=O)NC(=O)c1cc(C/C=C/C(N)CS)ccc1-c1ccsc1` (stereo partly shown) [PM202]: the results for the IC50 (on GGTase; in assay [1]; on FTase) were 7420 nM, 1200 nM and 16 nM, respectively.
As to `CCc1ccc(C/C=C/C(N)CS)cc1C(=O)N[C@@H](CCSC)C(=O)OC` (stereo partly shown) [PM212], the IC50 came to 1840 nM on GGTase, 45 nM in assay [1] and 56 nM on FTase.
For the compound `COC(=O)[C@H](CCSC)NC(=O)C(Cc1ccccc1)SC[C@@H](/C=C/C(N)CS)C(C)C` (stereo partly shown) [PT011], the IC50 is 638 nM at GGTase, 23 nM in assay [1] and 43 nM at FTase.
